These are literature values, as cited in patent US20130108982A1, “Reshapable Device for Fixation at a Dental Site” (COLLDENT Y.A. LTD., priority 2007, published 2013).

Structures are written as SMILES.

Take `F` [fluoride]: the “acute lethal dose of fluoride (F)” value (acute) was 33 mg F/Kg body weight. Further, where the note is “chronic”, the chronic toxicity is 0.1 mg F/Kg.
For the compound `[F][Sn][F]` [stannous fluoride], the antibacterial activity result in the data set on bacteria is recorded as “has shown antibacterial activity”.
